# Assay results reported in patent publication US9469611B2, “Use of dihydroimidazolones for the treatment of dogs” (BOEHRINGER INGELHEIM VETMEDICA GMBH, priority 2002, dated 2016).
# Values joined by “and” are separate entries in the source; they are usually repeats but may differ in a detail not shown here. Equal entries are not always repeated. Marks after values point to notes of the source that are not given here.
# Assays:
# [1] = cited from earlier work
# [2] = serum concentrations of phenobarbital and bromide
# [3] = test system: dogs with newly diagnosed idiopathic epilepsy; assay: monotherapy in dogs with newly diagnosed idiopathic epilepsy (AWD 131-138 pilot study; retrospective phenobarbital, primidone); conditions: for duration of the ictus before treatment, median / duration of the ictus before treatment, time range / duration of the ictus during treatment, median / duration of the ictus during treatment, time range: grand mal seizures; for duration of the ictus before treatment, median / duration of the ictus before treatment, time range / Seizure frequency before treatment, all dogs / Seizure frequency before treatment, without nonresponders: baseline before monotherapy; for % reduction of seizures in responders: mean ± SEM; for Seizure frequency before treatment, all dogs / Seizure frequency before treatment, without nonresponders / Seizure frequency during treatment, all dogs / Seizure frequency during treatment, without nonresponders: median group value; for Seizure frequency during treatment, all dogs / Seizure frequency during treatment, without nonresponders: asterisk = P<0.05 vs before; for shortening of the postictal phase, mean: in the dogs with shortening; for dogs with unchanged or increased seizure severity: owners record
# [4] = test system: dogs with chronic idiopathic epilepsy; assay: add-on therapy in dogs with chronic idiopathic epilepsy not responding to phenobarbital or primidone; format: in vivo, dog
# [5] = 44 newly diagnosed dogs, phenobarbital 4 to 13 mg/kg p.o. daily
# [6] = eight chronic epilepsy dogs (potassium bromide add-on group), phenobarbital 6 to 17 mg/kg p.o. daily
# [7] = eleven chronic epilepsy dogs (later AWD add-on), phenobarbital 6 to 23 mg/kg p.o. daily
# [8] = add-on to phenobarbital or primidone
# [9] = grand mal seizures, add-on to phenobarbital or primidone
# [10] = grand mal seizures, on phenobarbital or primidone before add-on
# [11] = median, on phenobarbital/primidone before add-on
# [12] = potassium bromide 40-60 mg/kg p.o. daily, add-on
compound,measurement,setting,value
"CCC1(c2ccccc2)C(=O)NC(=O)NC1=O [Phenobarbital, phenobarbital]","phenobarbital serum concentration, reference values",[1]; established by FARNBACH 1984,45 µg/mL
same,"serum concentration of phenobarbital, mean",[2]; [5],18400 ng/mL
same,"serum concentration of phenobarbital, median",[2]; [5],17200 ng/mL
same,"serum concentration, mean",[2]; [6],27200 ng/mL
same,"serum concentration, median",[2]; [6],24600 ng/mL
same,"serum concentration of phenobarbital, mean",[2]; [7],32000 ng/mL
same,"serum concentration of phenobarbital, median",[2]; [7],26500 ng/mL
same,"duration of the ictus before treatment, median",[3],4.0 min
same,"duration of the ictus before treatment, time range",[3],0.5 to 10 min
same,"duration of the ictus during treatment, median",[3]; monotherapy,5.0 min
same,"duration of the ictus during treatment, time range",[3]; monotherapy,0.5 to 10 min
same,% reduction of seizures in responders,[3]; monotherapy,72.4 ± 4.6%
same,"Seizure frequency before treatment, all dogs",[3],1.6 seizures/month
same,"Seizure frequency before treatment, without nonresponders",[3],1.68 seizures/month
same,"Seizure frequency during treatment, all dogs",[3]; monotherapy,0.59* seizures/month
same,"Seizure frequency during treatment, without nonresponders",[3]; monotherapy,0.42* seizures/month
same,dogs that died or were euthanized in status epilepticus,[3]; monotherapy,10
same,dogs with focal seizures instead of grand mal seizures during treatment,[3]; monotherapy,6
same,number of dogs with decreased duration of the ictus,[3]; monotherapy,4
same,number of dogs with shortened postictal phase,[3]; monotherapy,8
same,owners reporting subjectively a decrease of seizure severity,[3]; monotherapy,24
same,"postictal phase during treatment, mean",[3]; monotherapy,3 h
same,"shortening of the postictal phase, mean",[3]; monotherapy,43%
same,dogs with unchanged or increased seizure severity,[3]; monotherapy,11
"[Br-].[K+] [Potassium bromide, potassium bromide, reference compound]",comparison of antiepileptic efficacy between the two add on treatment schedules,[4]; Fisher's exact test,did not indicate any significant difference
same,dogs in which clusters did not occur anymore,[4]; add-on,6
same,dogs with worsening of seizure severity reported by owner,[4]; add-on,one
same,number of dogs with decreased duration of the ictus,[4]; add-on,3
same,number of dogs with shortened postictal phase,[4]; add-on,two
same,"postictal phase during treatment, mean",[4]; add-on,5.5 h
same,dogs in which a seizure reduction was observed,[4]; [8],7 of 12
same,dogs that died or were euthanized in status epilepticus,[4]; [8],6
same,Number of seizure-free dogs,[4]; add-on to phenobarbital/primidone,0/12
same,shortening of the postictal phase,"[4]; add-on, in the dogs with shortening",50% and 75%
same,"duration of the ictus during treatment, median",[4]; [9],2.0 min
same,"duration of the ictus during treatment, time range",[4]; [9],1 to 10 min
same,"duration of the ictus before treatment, median",[4]; [10],3.0 min
same,"duration of the ictus before treatment, time range",[4]; [10],1 to 13 min
same,% reduction of seizures in responders,"[4]; mean ± SEM, add-on to phenobarbital/primidone",59.7 ± 5.9%
same,"Seizure frequency during treatment, all dogs","[4]; median, add-on to phenobarbital/primidone",1.9 seizures/month
same,"Seizure frequency during treatment, without nonresponders","[4]; median, add-on to phenobarbital/primidone, asterisk = P<0.05",0.8* seizures/month
same,"Seizure frequency before treatment, all dogs",[4]; [11],3.0 seizures/month
same,"Seizure frequency before treatment, without nonresponders",[4]; [11],3.0 seizures/month
same,"bromide concentration, therapeutic range",[1]; established by PODELL and FENNER 1993,1.0 to 2.0 mg/mL
same,"Bromide concentration, mean",[2]; [12],1.0 mg/mL
same,"Bromide concentration, median",[2]; [12],0.9 mg/mL
"CCC1(c2ccccc2)C(=O)NCNC1=O [Primidone, primidone]",comparison of antiepileptic efficacy between monotherapy treatment groups,[3]; ANOVA,did not indicate any significant differences
same,"duration of the ictus before treatment, median",[3],1.5 min
same,"duration of the ictus before treatment, time range",[3],0.5 to 10 min
same,"duration of the ictus during treatment, median",[3]; monotherapy,1.0 min
same,"duration of the ictus during treatment, time range",[3]; monotherapy,0.5 to 10 min
same,% reduction of seizures in responders,[3]; monotherapy,75.1 ± 5.1%
same,"Seizure frequency before treatment, all dogs",[3],1.75 seizures/month
same,"Seizure frequency before treatment, without nonresponders",[3],2.0 seizures/month
same,"Seizure frequency during treatment, all dogs",[3]; monotherapy,0.39 seizures/month
same,"Seizure frequency during treatment, without nonresponders",[3]; monotherapy,0.29* seizures/month
same,dogs in which a seizure reduction was observed,[3]; monotherapy,19 of 26
same,dogs that died or were euthanized in status epilepticus,[3]; monotherapy,10
same,dogs with focal seizures instead of grand mal seizures during treatment,[3]; monotherapy,2
same,dogs with reduced seizure number per cluster,[3]; monotherapy,5 out of ten
same,number of dogs with decreased duration of the ictus,[3]; monotherapy,2
same,number of dogs with shortened postictal phase,[3]; monotherapy,5
same,owners reporting subjectively a decrease of seizure severity,[3]; monotherapy,ten of 22
same,"postictal phase during treatment, mean",[3]; monotherapy,4.5 h
same,"reduction of seizure number per cluster, mean",[3]; monotherapy,37.5%
same,decrease of the duration of the ictus,"[3]; monotherapy, in the dogs with a decrease",30%
same,"shortening of the postictal phase, mean",[3]; monotherapy,40%
same,dogs with unchanged or increased seizure severity,[3]; monotherapy,2
